Reference: ChEMBL document CHEMBL1151876, “Constrained (l-)-S-adenosyl-l-homocysteine (SAH) analogues as DNA methyltransferase inhibitors” (Bioorg Med Chem Lett, 2009)

How the values were obtained:
[1] = molecular target: T1, DNA (cytosine-5)-methyltransferase 1 (Homo sapiens, UniProt P26358)
Description: Inhibition of human recombinant DNMT1

[2] = molecular target: T1, DNA (cytosine-5)-methyltransferase 1; conditions: 45 uM
Description: Inhibition of human recombinant DNMT1 at 45 uM

[3] = molecular target: DNA (cytosine-5)-methyltransferase 3B (Homo sapiens, UniProt Q9UBC3)
Description: Inhibition of human recombinant DNMT3b2

T1 sequence (P26358 whole entry): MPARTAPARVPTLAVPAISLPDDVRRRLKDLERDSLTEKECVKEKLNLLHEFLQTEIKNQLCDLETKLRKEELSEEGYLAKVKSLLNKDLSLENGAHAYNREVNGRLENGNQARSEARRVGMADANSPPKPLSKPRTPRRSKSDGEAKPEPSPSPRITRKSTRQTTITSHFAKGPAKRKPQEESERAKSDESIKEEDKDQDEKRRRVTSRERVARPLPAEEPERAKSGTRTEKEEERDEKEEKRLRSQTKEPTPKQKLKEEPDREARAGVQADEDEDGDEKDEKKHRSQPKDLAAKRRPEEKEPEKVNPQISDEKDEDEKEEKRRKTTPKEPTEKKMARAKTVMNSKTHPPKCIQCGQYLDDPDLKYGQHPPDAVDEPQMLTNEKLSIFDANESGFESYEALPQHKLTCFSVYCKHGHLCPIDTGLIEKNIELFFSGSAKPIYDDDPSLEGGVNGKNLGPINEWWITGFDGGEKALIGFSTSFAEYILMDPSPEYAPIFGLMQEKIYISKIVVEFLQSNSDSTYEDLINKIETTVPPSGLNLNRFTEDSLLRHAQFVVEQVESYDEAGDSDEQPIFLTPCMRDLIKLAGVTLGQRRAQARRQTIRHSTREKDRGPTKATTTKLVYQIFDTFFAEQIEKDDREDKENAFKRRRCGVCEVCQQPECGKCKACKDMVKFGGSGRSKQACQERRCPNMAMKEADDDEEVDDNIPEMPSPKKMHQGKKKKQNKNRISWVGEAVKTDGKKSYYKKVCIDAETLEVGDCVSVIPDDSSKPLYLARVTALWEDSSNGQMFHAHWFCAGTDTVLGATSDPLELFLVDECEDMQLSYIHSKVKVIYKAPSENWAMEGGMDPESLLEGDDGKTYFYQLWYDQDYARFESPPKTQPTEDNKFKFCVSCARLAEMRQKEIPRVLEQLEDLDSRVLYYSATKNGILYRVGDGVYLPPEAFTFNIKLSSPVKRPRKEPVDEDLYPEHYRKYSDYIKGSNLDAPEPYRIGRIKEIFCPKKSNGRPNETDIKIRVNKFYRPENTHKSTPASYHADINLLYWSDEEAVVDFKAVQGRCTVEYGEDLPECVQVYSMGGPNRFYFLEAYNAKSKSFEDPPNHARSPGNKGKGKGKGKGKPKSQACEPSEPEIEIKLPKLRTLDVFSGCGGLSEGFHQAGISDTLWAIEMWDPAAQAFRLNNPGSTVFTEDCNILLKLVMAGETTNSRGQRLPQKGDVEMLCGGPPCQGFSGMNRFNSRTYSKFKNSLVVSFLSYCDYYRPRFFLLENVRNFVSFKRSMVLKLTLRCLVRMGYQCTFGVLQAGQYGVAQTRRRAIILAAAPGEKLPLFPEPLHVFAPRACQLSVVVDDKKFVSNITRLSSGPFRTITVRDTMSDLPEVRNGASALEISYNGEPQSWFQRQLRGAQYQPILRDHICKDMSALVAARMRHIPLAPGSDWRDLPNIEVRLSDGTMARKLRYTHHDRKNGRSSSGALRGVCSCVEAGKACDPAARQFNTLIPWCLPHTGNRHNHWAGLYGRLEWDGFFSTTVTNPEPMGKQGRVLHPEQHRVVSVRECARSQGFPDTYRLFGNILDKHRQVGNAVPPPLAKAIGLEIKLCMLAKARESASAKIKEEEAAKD

Nc1nc(Cl)nc2c1ncn2C1O[C@H](CS[C@@H]2CN[C@H](C(=O)O)C2)[C@@H](O)[C@H]1O (single isomer, unassigned)
IC50 [1]: 0.82 µM

NCCSC[C@H]1O[C@@H](n2cnc3c(N)ncnc32)[C@H](O)[C@@H]1O
IC50 [1]: 18 µM

NC(=O)[C@@H]1C[C@H](SC[C@H]2O[C@@H](n3cnc4c(N)ncnc43)[C@H](O)[C@@H]2O)CN1
inhibition [2]: 1%

Nc1ncnc2c1ncn2[C@@H]1O[C@H](CS[C@@H]2CCC[C@@H]2N)[C@@H](O)[C@H]1O
IC50 [1]: 94 µM

Nc1ncnc2c1ncn2[C@@H]1O[C@H](CS[C@H]2CCNC2)[C@@H](O)[C@H]1O
IC50 [1]: 44 µM | IC50 [3]: 26 µM

Nc1nc(Cl)nc2c1ncn2C1O[C@H](CS[C@H]2CCNC2)[C@@H](O)[C@H]1O (single isomer, unassigned)
IC50 [3]: > 45 µM

Nc1ncnc2c1ncn2[C@@H]1O[C@H](CS[C@H]2CN[C@H](C(=O)O)C2)[C@@H](O)[C@H]1O
IC50 [1]: > 100 µM | IC50 [3]: 54 µM

Nc1ncnc2c1ncn2[C@@H]1O[C@H](CS[C@@H]2CCN[C@H](C(=O)O)C2)[C@@H](O)[C@H]1O
IC50 [1]: > 100 µM

Nc1ncnc2c1ncn2[C@@H]1O[C@H](CS[C@H]2CCN[C@H](C(=O)O)C2)[C@@H](O)[C@H]1O
IC50 [1]: 8 µM

Nc1ncnc2c1ncn2[C@@H]1O[C@H](CSCC[C@H](N)C(=O)O)[C@@H](O)[C@H]1O [S-ADENOSYLHOMOCYSTEINE]
IC50 [3]: 0.2 µM

CN1C[C@@H](SC[C@H]2O[C@@H](n3cnc4c(N)ncnc43)[C@H](O)[C@@H]2O)C[C@H]1C(=O)O
IC50 [1]: > 100 µM

COC(=O)[C@@H]1C[C@H](SC[C@H]2O[C@@H](n3cnc4c(N)ncnc43)[C@H](O)[C@@H]2O)CN1C
IC50 [1]: 4.5 µM

Nc1ncnc2c1ncn2[C@@H]1O[C@H](CSC2CNC2)[C@@H](O)[C@H]1O
IC50 [3]: > 100 µM

COC(=O)[C@@H]1C[C@H](SC[C@H]2O[C@@H](n3cnc4c(N)ncnc43)[C@H](O)[C@@H]2O)CN1
IC50 [1]: 4 µM

Nc1ncnc2c1ncn2[C@@H]1O[C@H](CS[C@@H]2CCNC2)[C@@H](O)[C@H]1O
IC50 [1]: 4.8 µM | IC50 [3]: 12 µM

NCCCSC[C@H]1O[C@@H](n2cnc3c(N)ncnc32)[C@H](O)[C@@H]1O
IC50 [1]: > 45 µM | IC50 [3]: 17 µM

Nc1ncnc2c1ncn2[C@@H]1O[C@H](CS[C@H]2CCCNC2)[C@@H](O)[C@H]1O
inhibition [2]: 18%

Nc1ncnc2c1ncn2[C@@H]1O[C@H](CS[C@H]2CCN[C@@H](C(=O)O)C2)[C@@H](O)[C@H]1O
IC50 [1]: > 100 µM

CN1CC[C@@H](SC[C@H]2O[C@@H](n3cnc4c(N)ncnc43)[C@H](O)[C@@H]2O)C1
IC50 [1]: > 10 µM

O=C(O)[C@@H]1C[C@H](SC[C@H]2O[C@@H](n3cnc4c(NCCc5ccc(-c6ccccc6)cc5)nc(Cl)nc43)[C@H](O)[C@@H]2O)CN1
IC50 [1]: 2.5 µM

Nc1ncnc2c1ncn2[C@@H]1O[C@H](CS[C@@H]2CN[C@H](C(=O)O)C2)[C@@H](O)[C@H]1O
IC50 [1]: 1.1 µM | IC50 [3]: 0.3 µM
